Laboratory results: US4906618A, “Prophylactic and therapeutic agent against swine dysentery” (Fujisawa Pharmaceutical Co., Ltd., priority 1986, dated 1990)
Like-named read-outs stand apart in the source and are kept apart here.

Tests used:
Treponema hyodysenteriae = assay: In vitro activity (MIC) against Treponema hyodysenteriae, agar dilution; assay type: cell-based; settings: for MIC: Brachyspira hyodysenteriae, read-out: MIC (minimum inhibitory concentration); for MIC (minimum inhibitory concentration): 72 hours anaerobic, 37° C.
Procedure: The test organisms were grown anaerobically for 96 hours on Trypticase soy agar plate supplemented with 5% sheep blood. Appropriate amounts of physiological saline solution were poured into each agar plate to make a cell-suspension of test organism, which was finally adjusted at the cell density of 10^6 colony forming units (CFU)/ml. Freshly prepared Trypticase soy agar plates supplemented with 5% sheep blood which were containing serial two-fold dilutions of each of the compounds as mentioned below were inoculated with a loopful (about 5 μl) of the above-mentioned cell-suspension. The MIC (minimum inhibitory concentration) values were determined after 72 hours of anaerobical incubation at 37° C. in Gas Pak jars.

[1] = system: Treponema hyodysenteriae S5709; assay: Protective effect against experimental infection of Treponema hyodysenteriae in mice; assay type: in vivo, mice (ddy); settings: 5 mg/kg, oral, once a day on first and second day after challenge, one week after infection
Procedure: 5 week-old mice (ddy, .male.) were used in these experiments. Mice were orally infected with 1.8×10^7 cells of Treponema hyodysenteriae S5709 grown for 96 hours on Trypticase soy agar plate supplemented with 5% sheep blood. On the first and second day after challenge, test compounds were given by oral administration once a day. One week after infection, the efficacy of the antibiotics on mice suffering from dysentery was determined as follows. Cecum contents from infected mice were suspended in 2 ml of saline solution, diluted twenty times with Trypticase soy medium supplemented with 5% sheep blood and cultured for T. hyodysenteriae on agar plate of Trypticase soy medium supplemented with 5% sheep blood at 37° C. for 72 hours in Gas Pak jars. The numbers of T. hyodysenteriae colony appeared on the plates were counted. Mice that gave no colony formations of T. hyodysenteriae were regarded as cured mice.

[2] = Growth promoting effect in pigs; assay type: in vivo, pigs (LWD strain); settings: for Efficiency of feed utilization: 6 weeks, control 2.19; for Average body weight gain at the 6th week after the feeding: control 18.0; for Average final body weight at the 6th week after the starting of the feeding: control 28.0
Excerpt: Five sets of 24 pigs (33 days-old, LWD strain) were used. Each 24 pigs were divided into 4 groups, i.e. 3 treatment groups and a control group. Each group consisted of 3 barrows and 3 female pigs. They were fed continuously with the feed described in Table 6.
The above basal ration I +

[3] = system: Treponema hyodysenteriae ATCC31212; assay: Therapeutic effect on experimentally induced swine dysentery in piglets; assay type: in vivo, piglets (Landace×Large White crossbred); settings: solution in water; for (average) days of disappearance of fecal T. h: detection limit 10^2 CFU/g of feces
Procedure: Seven piglets, LW (Landace×Large White crossbred) male, were used. The initial body weight at the time of inoculation of infective materials ranged from 6.5 to 8.5 kg. Piglets were divided into 4 groups ([…] and 1 group of 1 head) and were maintained in stainless cages (90×90 cm) with raised plastic net floors at 28±2° C. Feed [Milk replacer for piglet] and water were supplied ad libitum except the duration of fasting. Infective materials used were prepared as follows. A total of 300 g of mucous haemorrhagic feces, large intestinal (from caecum through rectum) contents, and mucosa obtained from a clinically affected pig (3 days after onset of swine dysentery), which was previously inoculated into its caecum with pure culture of Treponema hyodysenteriae ATCC31212 (about 3×10^9 colony forming units/head) by surgical operation, were suspended, diluted finally 2.5 times with phosphate-bufferized saline and minced by biotron homogenizer (trademark, made by Biotrona Co., Ltd.).
For the purpose of infection, all piglets were inoculated individually with about 90 g of the infective materials after 22 hours' fasting.
Treatment were done once a day for 2 consecutive days from the 5th day post inoculation.

[4] = Growth promoting effect in male broiler chickens; assay type: in vivo, male broiler chickens (chunky); settings: for Average body weight gain at one week after the feeding: control 95.3; for Average final body weight at one week after the feeding: control 183.8; for Efficiency of feed utilization: one week, control 2.02
Excerpt: 8-Days-old male broiler chickens (chunky) were divided into 3 groups i.e. 2 treatment groups and a control group, each group of which consisted of 10 chicks. They were fed continuously with the feed described in Table 8.
The above Basal ration II +

[5] = Acute toxicity test in mice; assay type: in vivo, ddy mice; settings: single intravenous dose 20 mg (1 g/kg), five mice, 10 days of observation
Procedure: Further, in the acute toxicity test, each of five ddy mice (5-week old, male, 20 g in weight), was intraveneously given a single dose of WS-1627A, B, C or D 20 mg (lg/kg) and all survived.

[6] = background statement; cited from earlier work
[7] = Treatment group I, 10 ppm in feed
[8] = Treatment group II, 20 ppm in feed
[9] = Treatment group III, 40 ppm in feed
[10] = intramuscularly 10 mg/kg body weight × 2 day, 1 pig
[11] = orally 2.5 mg/kg body weight × 2 day, 2 pigs
[12] = Treatment group II, 50 ppm in feed

SMILES: CC(=O)C1OC(Oc2ccc(C=C(C)C(=O)NC3C(O)C(O)C4OCOC4C3O)cc2O)C(O)C1O (stereo not shown) [WS-1627B, hygromycin]
- Solubility (Solubility; acetone): Insoluble
- Solubility (Solubility; chloroform): Insoluble
- Solubility (Solubility; ethyl acetate): Insoluble
- Solubility (Solubility; methanol): Soluble
- Solubility (Solubility; water): Soluble
- MIC (Treponema hyodysenteriae; 72 h): < 0.8 µg/mL
- MIC (Treponema hyodysenteriae; ATCC31212, 72 h): < 0.8 µg/mL
- antimicrobial activities against Treponema hyodysenteriae (Treponema hyodysenteriae; statement in words): strong antimicrobial activities
- MIC (minimum inhibitory concentration) (Treponema hyodysenteriae; strain S5709): < 0.8 µg/mL
- MIC (minimum inhibitory concentration) (Treponema hyodysenteriae; strain TH81013): < 0.8 µg/mL
- cured/treated ([1]; listed as WS1627B): 7/7
- Efficiency of feed utilization [2, 7]: 2.05
- Average body weight gain at the 6th week after the feeding [2, 7]: 19.6 kg
- Average final body weight at the 6th week after the starting of the feeding [2, 7]: 29.6 kg
- Efficiency of feed utilization [2, 8]: 2.11
- Average body weight gain at the 6th week after the feeding [2, 8]: 19.2 kg
- Average final body weight at the 6th week after the starting of the feeding [2, 8]: 29.2 kg
- Efficiency of feed utilization [2, 9]: 2.09
- Average body weight gain at the 6th week after the feeding [2, 9]: 18.9 kg
- Average final body weight at the 6th week after the starting of the feeding [2, 9]: 28.9 kg
- (average) days of recovery to normal stool [3, 10]: 1 days
- (average) days of disappearance of fecal T. h [3, 10]: 1 days
- (average) days of recovery to normal stool [3, 11]: 2 days
- (average) days of disappearance of fecal T. h [3, 11]: 2 days
- Average body weight gain at one week after the feeding [4, 7]: 116.5 g
- Average final body weight at one week after the feeding [4, 7]: 204.5 g
- Efficiency of feed utilization [4, 7]: 2.00
- Average body weight gain at one week after the feeding [4, 12]: 121 g
- Average final body weight at one week after the feeding [4, 12]: 209 g
- Efficiency of feed utilization [4, 12]: 1.67
- survival [5]: all survived
- toxic symptom [5]: no toxic symptom was observed

SMILES: COC(=O)N/N=C/c1c[n+]([O-])c2ccccc2[n+]1[O-] [carbadox]
- mutagenicity [6]: strong mutagenic substance

SMILES: CC(=O)C1OC(Oc2ccc(C=C(C)C(=O)NC3C(O)C(O)C4OCOC4C3O)cc2O)C(O)C1O (stereo not drawn) [WS-1627D, epi-hygromycin]
- cured/treated ([1]; listed as WS1627D): 4/7
